In PMC6105524 (Lipids, 2018):
Read-outs that look alike come from different tables or passages of the source.

Columns and labels:
[1] = Plasma unlabeled fatty acid concentrations; type: in vivo, human
[2] = type: in vivo, human; settings: for F (turnover of esterified n-3 HUFA in plasma): Jsyn / amount in plasma total lipids; for Time first detected in plasma: after beginning infusion; for Total esterified amount in plasma at 7 h: 7 h of infusion
[3] = ref Domenichiello et al. 2014, Domenichiello et al. 2016, Metherel et al. 2018, cited from earlier work
[4] = compartmental modeling, humans; ref Pawlosky et al. 2001; cited from earlier work
[5] = subject S01, unlabeled, mean of 17 time points, low linoleate diet
[6] = subject S02, unlabeled, mean of 17 time points, low linoleate diet
[7] = subject S01, 8 h iv infusion of d5-ALA-albumin 0.78 mg/kg BW/hr
[8] = subject S01, k1 x unesterified ALA 2.52 nmol/mL
[9] = subject S02, 8 h iv infusion of d5-ALA-albumin 0.78 mg/kg BW/hr
[10] = subject S02, k1 x unesterified ALA 4.74 nmol/mL

## CCCCCCCCCCCCCC(=O)O [14:0]
[1]; [5]
  Fatty acid concentration in plasma total lipids (mean): 43.9 nmol/mL
[1]; [6]
  Fatty acid concentration in plasma total lipids (mean): 36.8 nmol/mL

## CCCCCCCCCCCCCCCC(=O)O [16:0]
[1]; [5]
  Fatty acid concentration in plasma total lipids (mean): 1265 nmol/mL
[1]; [6]
  Fatty acid concentration in plasma total lipids (mean): 1152 nmol/mL

## CCCCCC/C=C\CCCCCCCC(=O)O [16:1n-7]
[1]; [5]
  Fatty acid concentration in plasma total lipids (mean): 153 nmol/mL
[1]; [6]
  Fatty acid concentration in plasma total lipids (mean): 91.9 nmol/mL

## CCCCCCCCCCCCCCCCCC(=O)O [18:0]
[1]; [5]
  Fatty acid concentration in plasma total lipids (mean): 367 nmol/mL
[1]; [6]
  Fatty acid concentration in plasma total lipids (mean): 374 nmol/mL

## CCCCCC/C=C/CCCCCCCCCC(=O)O [18:1n-7]
[1]; [5]
  Fatty acid concentration in plasma total lipids (mean): 98.0 nmol/mL
[1]; [6]
  Fatty acid concentration in plasma total lipids (mean): 104 nmol/mL

## CCCCCCCC/C=C\CCCCCCCC(=O)O [18:1n-9]
[1]; in vivo
  Fatty acid concentration in plasma total lipids (mean): 896 nmol/mL

## CCCCC/C=C\C/C=C\C/C=C\CCCCC(=O)O [18:3n-6]
[1]; [5]
  Fatty acid concentration in plasma total lipids (mean): 15.3 nmol/mL
[1]; [6]
  Fatty acid concentration in plasma total lipids (mean): 12.3 nmol/mL

## CCCCCCCC/C=C\CCCCCCCCCC(=O)O [20:1n-9]
[1]; [5]
  Fatty acid concentration in plasma total lipids (mean): 7.8 nmol/mL
[1]; [6]
  Fatty acid concentration in plasma total lipids (mean): 9.3 nmol/mL

## CCCCC/C=C\C/C=C\CCCCCCCCCC(=O)O [20:2n-6]
[1]; [5]
  Fatty acid concentration in plasma total lipids (mean): 8.6 nmol/mL
[1]; [6]
  Fatty acid concentration in plasma total lipids (mean): 13.6 nmol/mL

## CCCCC/C=C\C/C=C\C/C=C\CCCCCCC(=O)O [20:3n-6]
[1]; [5]
  Fatty acid concentration in plasma total lipids (mean): 98.2 nmol/mL
[1]; [6]
  Fatty acid concentration in plasma total lipids (mean): 79.1 nmol/mL

## CCCCCCCCCCCCCCCCCCCCCC(=O)O [22:0]
[1]; [5]
  Fatty acid concentration in plasma total lipids (mean): 30.5 nmol/mL
[1]; [6]
  Fatty acid concentration in plasma total lipids (mean): 17.4 nmol/mL

## CCCCC/C=C\C/C=C\C/C=C\C/C=C\CCCCCC(=O)O [22:4n-6]
[1]; [5]
  Fatty acid concentration in plasma total lipids (mean): 9.6 nmol/mL
[1]; [6]
  Fatty acid concentration in plasma total lipids (mean): 8.5 nmol/mL

## CCCCC/C=C\C/C=C\C/C=C\C/C=C\C/C=C\CCC(=O)O [22:5n-6]
[1]; [5]
  Fatty acid concentration in plasma total lipids (mean): 16.8 nmol/mL
[1]; [6]
  Fatty acid concentration in plasma total lipids (mean): 8.0 nmol/mL

## CCCCCCCCCCCCCCCCCCCCCCCC(=O)O [24:0]
[1]; [5]
  Fatty acid concentration in plasma total lipids (mean): 21.5 nmol/mL
[1]; [6]
  Fatty acid concentration in plasma total lipids (mean): 15.2 nmol/mL

## CCCCCCCC/C=C\CCCCCCCCCCCCCC(=O)O [24:1n-9]
[1]; [5]
  Fatty acid concentration in plasma total lipids (mean): 48.1 nmol/mL
[1]; [6]
  Fatty acid concentration in plasma total lipids (mean): 21.8 nmol/mL

## CC/C=C\C/C=C\C/C=C\CCCCCCCC(=O)O [ALA, α-linolenic acid]
[1]; subject S01
  Plasma concentration of unesterified unlabeled ALA: 2.52 µM
[1]; [5]
  Fatty acid concentration in plasma total lipids (mean): 24.3 nmol/mL
[1]; subject S02
  Plasma concentration of unesterified unlabeled ALA: 4.74 µM
[1]; [6]
  Fatty acid concentration in plasma total lipids (mean): 33.5 nmol/mL

## CC/C=C\C/C=C\C/C=C\C/C=C\C/C=C\C/C=C\CCC(=O)O [DHA, Docosahexaenoic acid]
[2]; subject S01
  Smax (maximal first derivative of plasma total amount time-course of newly synthesized d5-n-3 HUFA): 0.67 nmol/min
  k1 (synthesis-secretion coefficient): 0.39 mL/min
  F (turnover of esterified n-3 HUFA in plasma): 2.6e-06 min⁻¹
[2]; [7]
  Time at Smax: 109 min
[2]; [8]
  Jsyn (whole body synthesis-secretion rate from circulating unesterified 18:3n-3): 0.99 nmol/min
[2]; subject S02
  Smax (maximal first derivative of plasma total amount time-course of newly synthesized d5-n-3 HUFA): 0.21 nmol/min
  k1 (synthesis-secretion coefficient): 0.12 mL/min
  F (turnover of esterified n-3 HUFA in plasma): 3.7e-06 min⁻¹
[2]; [9]
  Time at Smax: 125 min
[2]; [10]
  Jsyn (whole body synthesis-secretion rate from circulating unesterified 18:3n-3): 0.56 nmol/min
[3]; rats consuming a high ALA diet
  Whole body synthesis-secretion rate of DHA from circulating ALA: 1.5 µmol/day
[3]; rats consuming a low ALA containing diet
  Whole body synthesis-secretion rate of DHA from circulating ALA: 0.045 µmol/day
[4]
  Rate of mass flow from immediate precursor: 0.464 µmol/day

## CC/C=C\C/C=C\C/C=C\C/C=C\C/C=C\CCCCCC(=O)O [DPAn-3, docosapentaenoic acid]
[2]; subject S01
  Smax (maximal first derivative of plasma total amount time-course of newly synthesized d5-n-3 HUFA): 2.43 nmol/min
  k1 (synthesis-secretion coefficient): 1.44 mL/min
  F (turnover of esterified n-3 HUFA in plasma): 8.8e-05 min⁻¹
[2]; [7]
  Time at Smax: 94 min
[2]; [8]
  Jsyn (whole body synthesis-secretion rate from circulating unesterified 18:3n-3): 3.62 nmol/min
[2]; subject S02
  Smax (maximal first derivative of plasma total amount time-course of newly synthesized d5-n-3 HUFA): 4.14 nmol/min
  k1 (synthesis-secretion coefficient): 2.32 mL/min
  F (turnover of esterified n-3 HUFA in plasma): 0.00019 min⁻¹
[2]; [9]
  Time at Smax: 156 min
[2]; [10]
  Jsyn (whole body synthesis-secretion rate from circulating unesterified 18:3n-3): 11.0 nmol/min
[4]
  Rate of mass flow from immediate precursor: 0.075 µmol/day

## CC/C=C\C/C=C\C/C=C\C/C=C\C/C=C\CCCC(=O)O [EPA, eicosapentaenoic acid]
[2]; subject S01
  Smax (maximal first derivative of plasma total amount time-course of newly synthesized d5-n-3 HUFA): 3.23 nmol/min
  k1 (synthesis-secretion coefficient): 1.91 mL/min
  F (turnover of esterified n-3 HUFA in plasma): 7.7e-05 min⁻¹
[2]; [7]
  Time at Smax: 190 min
[2]; [8]
  Jsyn (whole body synthesis-secretion rate from circulating unesterified 18:3n-3): 4.81 nmol/min
[2]; subject S02
  Smax (maximal first derivative of plasma total amount time-course of newly synthesized d5-n-3 HUFA): 2.29 nmol/min
  k1 (synthesis-secretion coefficient): 1.29 mL/min
  F (turnover of esterified n-3 HUFA in plasma): 0.00015 min⁻¹
[2]; [9]
  Time at Smax: 215 min
[2]; [10]
  Jsyn (whole body synthesis-secretion rate from circulating unesterified 18:3n-3): 6.09 nmol/min
[4]
  Rate of mass flow from immediate precursor: 0.021 µmol/day

## CC/C=C\C/C=C\C/C=C\C/C=C\C/C=C\CCCCCCCC(=O)O [TPAn-3, tetracosapentaenoic acid]
[2]; both subjects
  Jsyn (whole-body synthesis-secretion rate): 0.5 to 0.6 nmol/min
[2]; subject S01
  Smax (maximal first derivative of plasma total amount time-course of newly synthesized d5-n-3 HUFA): 0.39 nmol/min
  k1 (synthesis-secretion coefficient): 0.23 mL/min
  F (turnover of esterified n-3 HUFA in plasma): 7.4e-05 min⁻¹
[2]; [7]
  Time at Smax: 98 min
[2]; [8]
  Jsyn (whole body synthesis-secretion rate from circulating unesterified 18:3n-3): 0.58 nmol/min
[2]; subject S02
  Smax (maximal first derivative of plasma total amount time-course of newly synthesized d5-n-3 HUFA): 0.22 nmol/min
  k1 (synthesis-secretion coefficient): 0.12 mL/min
  F (turnover of esterified n-3 HUFA in plasma): 0.0001 min⁻¹
[2]; [9]
  Time at Smax: 150 min
[2]; [10]
  Jsyn (whole body synthesis-secretion rate from circulating unesterified 18:3n-3): 0.58 nmol/min
[1]; [5]
  Fatty acid concentration in plasma total lipids (mean): 2.1 nmol/mL
[1]; [6]
  Fatty acid concentration in plasma total lipids (mean): 2.0 nmol/mL

## [2H]C([2H])([2H])C([2H])([2H])/C=C\C/C=C\C/C=C\CCCCCCCC(=O)O [d5-18:3n-3, d5–17, 17, 18, 18, 18-18:3n-3, reference compound]
[2]; in vivo
  Plasma concentration of unesterified d5-18:3n-3 at 6 h: 4.37 µM
  Time to reach steady-state plasma concentration of infused unesterified tracer: about 10 min

## [2H]C([2H])([2H])C([2H])([2H])/C=C\C/C=C\C/C=C\C/C=C\C/C=C\CCCC(=O)O [d5-20:5n-3]
[2]; both subjects
  Time at Smax: about 200 min
  Time to achieve steady-state plasma concentration of esterified d5-HUFA: about 5 hr
[2]; subject S01
  Smax (maximal first derivative of plasma total amount time-course of newly synthesized d5-n-3 HUFA): 3.23 nmol/min
[2]; subject S02
  Smax (maximal first derivative of plasma total amount time-course of newly synthesized d5-n-3 HUFA): 2.29 nmol/min

## [2H]C([2H])([2H])C([2H])([2H])/C=C\C/C=C\C/C=C\C/C=C\C/C=C\CCCCCC(=O)O [d5-22:5n-3]
[2]
  Time first detected in plasma: 40 min
[2]; both subjects
  Time for which plasma amount increased before leveling off: up to 4 h
  Time to achieve steady-state plasma concentration of esterified d5-HUFA: about 5 hr
[2]; subject S01
  Smax (maximal first derivative of plasma total amount time-course of newly synthesized d5-n-3 HUFA): 2.43 nmol/min
  Total esterified amount in plasma at 7 h: 580 nmol
[2]; [7]
  Time at Smax: 94 min
[2]; subject S02
  Smax (maximal first derivative of plasma total amount time-course of newly synthesized d5-n-3 HUFA): 4.14 nmol/min
  Total esterified amount in plasma at 7 h: 920 nmol
[2]; [9]
  Time at Smax: 156 min

## [2H]C([2H])([2H])C([2H])([2H])/C=C\C/C=C\C/C=C\C/C=C\C/C=C\C/C=C\CCC(=O)O [d5-22:6n-3]
[2]
  Time first detected in plasma: 40 min
[2]; both subjects
  Time for which plasma amount increased before leveling off: up to 4 h
  Time to achieve steady-state plasma concentration of esterified d5-HUFA: about 5 hr
[2]; subject S01
  Smax (maximal first derivative of plasma total amount time-course of newly synthesized d5-n-3 HUFA): 0.67 nmol/min
  Total esterified amount in plasma at 7 h: 148 nmol
[2]; subject S02
  Smax (maximal first derivative of plasma total amount time-course of newly synthesized d5-n-3 HUFA): 0.21 nmol/min
  Total esterified amount in plasma at 7 h: 44 nmol

## tetracosahexaenoic acid [THA]
[2]; both subjects
  Jsyn (whole-body synthesis-secretion rate): 0.5 to 0.6 nmol/min
[2]; subject S01
  Smax (maximal first derivative of plasma total amount time-course of newly synthesized d5-n-3 HUFA): 0.41 nmol/min
  k1 (synthesis-secretion coefficient): 0.24 mL/min
  F (turnover of esterified n-3 HUFA in plasma): 5.8e-05 min⁻¹
[2]; [7]
  Time at Smax: 102 min
[2]; [8]
  Jsyn (whole body synthesis-secretion rate from circulating unesterified 18:3n-3): 0.61 nmol/min
[2]; subject S02
  Smax (maximal first derivative of plasma total amount time-course of newly synthesized d5-n-3 HUFA): 0.17 nmol/min
  k1 (synthesis-secretion coefficient): 0.10 mL/min
  F (turnover of esterified n-3 HUFA in plasma): 0.0001 min⁻¹
[2]; [9]
  Time at Smax: 125 min
[2]; [10]
  Jsyn (whole body synthesis-secretion rate from circulating unesterified 18:3n-3): 0.46 nmol/min
[1]; [5]
  Fatty acid concentration in plasma total lipids (mean): 2.8 nmol/mL
[1]; [6]
  Fatty acid concentration in plasma total lipids (mean): 1.5 nmol/mL
